From publication PMC7377239, “Cardiovascular Effects of Polychlorinated Biphenyls and Their Major Metabolites” (Environmental Health Perspectives, 2020)
Read-outs that look alike come from different tables or passages of the source.

System: iCell cardiomyocytes (human iPSC-derived cardiomyocytes)
Test: High-content imaging of cytotoxicity and mitochondrial integrity in iPSC-CMs
Type: cell-based
Settings: for viability at 0.01 µM / activity at 0.01 µM / viability at 0.1 µM / activity at 0.1 µM / viability at 1 µM / activity at 1 µM / viability at 10 µM / activity at 10 µM / viability at 100 µM / activity at 100 µM / minimal effective concentration: Homo sapiens, Cardiomyocyte; for viability at 0.01 µM / activity at 0.01 µM / viability at 0.1 µM / activity at 0.1 µM / viability at 1 µM / activity at 1 µM / viability at 10 µM / activity at 10 µM / viability at 100 µM / activity at 100 µM / cm.mii.90min / cm.mito.90min / cm.mii.24hrs / cm.mito.24hrs: 0.00 µM = 100.00
In short: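 This assay measured cytotoxicity and mitochondrial integrity in iPSC cardiomyocytes held in 40μL maintenance medium. After compound exposure, a 2× staining solution with Hoechst 33342 (4μg/mL) and MitoTracker™ Orange (0.4μM) was applied for 15 min at 37°C. Cells were washed, fixed with 3.7% formaldehyde, imaged on DAPI and Cy3 channels, and scored in MetaXpress®.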

With `Clc1ccc(-c2cc(Cl)c(Cl)c(Cl)c2)cc1Cl` [PCB126] the viability at 0.01 µM (1.5 h, 0.01 µM, 90min, read-out: cm.cam.90min) was 107%, the activity at 0.01 µM (1.5 h, 0.01 µM, 90min, read-out: cm.mii.90min) was 97.6% and the activity at 0.01 µM (1.5 h, 0.01 µM, 90min, read-out: cm.mito.90min) was 108%. For the same compound, the viability at 0.01 µM (1.5 h, 0.01 µM, 90min, read-out: cm.tc.90min) was 107%, the viability at 0.1 µM (1.5 h, 0.10 µM, 90min, read-out: cm.cam.90min) was 101% and the activity at 0.1 µM (1.5 h, 0.10 µM, 90min, read-out: cm.mii.90min) was 106%. For the same compound, the activity at 0.1 µM (1.5 h, 0.10 µM, 90min, read-out: cm.mito.90min) was 101%, the viability at 0.1 µM (1.5 h, 0.10 µM, 90min, read-out: cm.tc.90min) was 101% and the viability at 1 µM (1.5 h, 1.00 µM, 90min, read-out: cm.cam.90min) was 97.4%. The activity at 1 µM (1.5 h, 1.00 µM, 90min, read-out: cm.mii.90min) was 111%, the activity at 1 µM (1.5 h, 1.00 µM, 90min, read-out: cm.mito.90min) was 97.2% and the viability at 1 µM (1.5 h, 1.00 µM, 90min, read-out: cm.tc.90min) was 97.2%. The viability at 10 µM (1.5 h, 10.00 µM, 90min, read-out: cm.cam.90min) was 97.1%, the activity at 10 µM (1.5 h, 10.00 µM, 90min, read-out: cm.mii.90min) was 103% and the activity at 10 µM (1.5 h, 10.00 µM, 90min, read-out: cm.mito.90min) was 96.8%. For the same compound, the viability at 10 µM (1.5 h, 10.00 µM, 90min, read-out: cm.tc.90min) was 96.8%, the viability at 100 µM (1.5 h, 100.00 µM, 90min, read-out: cm.cam.90min) was 97.2% and the activity at 100 µM (1.5 h, 100.00 µM, 90min, read-out: cm.mii.90min) was 111%. It also gave an activity at 100 µM (1.5 h, 100.00 µM, 90min, read-out: cm.mito.90min) of 96.7%, a viability at 100 µM (1.5 h, 100.00 µM, 90min, read-out: cm.tc.90min) of 96.7% and a minimal effective concentration (1.5 h, 90min, read-out: cm.cam.90min POD) of 100 µM. The minimal effective concentration (1.5 h, 90min, read-out: cm.mii.90min POD) was 100 µM, the minimal effective concentration (1.5 h, 90min, read-out: cm.mito.90min POD) was 100 µM and the minimal effective concentration (1.5 h, 90min, read-out: cm.tc.90min POD) was 100 µM. For the same compound, the viability at 0.01 µM (24 h, 0.01 µM, 24hrs, read-out: cm.cam.24hrs) was 94.2%, the activity at 0.01 µM (24 h, 0.01 µM, 24hrs, read-out: cm.mii.24hrs) was 109% and the activity at 0.01 µM (24 h, 0.01 µM, 24hrs, read-out: cm.mito.24hrs) was 94%. For the same compound, the viability at 0.01 µM (24 h, 0.01 µM, 24hrs, read-out: cm.tc.24hrs) was 93.7%, the viability at 0.1 µM (24 h, 0.10 µM, 24hrs, read-out: cm.cam.24hrs) was 97.6% and the activity at 0.1 µM (24 h, 0.10 µM, 24hrs, read-out: cm.mii.24hrs) was 80.7%. The activity at 0.1 µM (24 h, 0.10 µM, 24hrs, read-out: cm.mito.24hrs) was 96.1%, the viability at 0.1 µM (24 h, 0.10 µM, 24hrs, read-out: cm.tc.24hrs) was 98% and the viability at 1 µM (24 h, 1.00 µM, 24hrs, read-out: cm.cam.24hrs) was 101%. For the same compound, the activity at 1 µM (24 h, 1.00 µM, 24hrs, read-out: cm.mii.24hrs) was 103%, the activity at 1 µM (24 h, 1.00 µM, 24hrs, read-out: cm.mito.24hrs) was 103% and the viability at 1 µM (24 h, 1.00 µM, 24hrs, read-out: cm.tc.24hrs) was 101%. It also gave a viability at 10 µM (24 h, 10.00 µM, 24hrs, read-out: cm.cam.24hrs) of 90.4%, an activity at 10 µM (24 h, 10.00 µM, 24hrs, read-out: cm.mii.24hrs) of 74% and an activity at 10 µM (24 h, 10.00 µM, 24hrs, read-out: cm.mito.24hrs) of 88.5%. For the same compound, the viability at 10 µM (24 h, 10.00 µM, 24hrs, read-out: cm.tc.24hrs) was 90.2%, the viability at 100 µM (24 h, 100.00 µM, 24hrs, read-out: cm.cam.24hrs) was 46.6% and the activity at 100 µM (24 h, 100.00 µM, 24hrs, read-out: cm.mii.24hrs) was 101%. The activity at 100 µM (24 h, 100.00 µM, 24hrs, read-out: cm.mito.24hrs) was 35.6%, the viability at 100 µM (24 h, 100.00 µM, 24hrs, read-out: cm.tc.24hrs) was 48.4% and the minimal effective concentration (24 h, read-out: cm.cam.24hrs POD) was 7.03 µM. The minimal effective concentration (24 h, read-out: cm.mii.24hrs POD) was 100 µM, the minimal effective concentration (24 h, read-out: cm.mito.24hrs POD) was 7.54 µM and the minimal effective concentration (24 h, read-out: cm.tc.24hrs POD) was 6.48 µM.
`COc1ccc(-c2cccc(Cl)c2)cc1Cl` [4-OMe-PCB 11, 4-methoxy-3,3′-dichlorobiphenyl] gave a minimal effective concentration (1.5 h, cardiomyocytes (cm), cam, 90 min, read-out: POD cm.cam.90min) of 33.8 µM, a minimal effective concentration (1.5 h, cardiomyocytes (cm), mii, 90 min, read-out: POD cm.mii.90min) of 62.2 µM and a minimal effective concentration (1.5 h, cardiomyocytes (cm), mito, 90 min, read-out: POD cm.mito.90min) of 29.1 µM. The minimal effective concentration (1.5 h, cardiomyocytes (cm), tc, 90 min, read-out: POD cm.tc.90min) was 28.6 µM, the minimal effective concentration (24 h, cardiomyocytes (cm), cam, 24 hrs, read-out: POD cm.cam.24hrs) was 37.2 µM and the minimal effective concentration (24 h, cardiomyocytes (cm), mii, 24 hrs, read-out: POD cm.mii.24hrs) was 10.8 µM. The minimal effective concentration (24 h, cardiomyocytes (cm), mito, 24 hrs, read-out: POD cm.mito.24hrs) was 31.1 µM and the minimal effective concentration (24 h, cardiomyocytes (cm), tc, 24 hrs, read-out: POD cm.tc.24hrs) was 33.4 µM.
Compound `Clc1ccc(Cl)c(-c2c(Cl)ccc(Cl)c2Cl)c1Cl` [(-)-PCB 136, 2,2′,3,3′,6,6′-hexachlorobiphenyl] has a cm.mii.90min (0.01 µM, 90min) of 112.68, a cm.mito.90min (0.01 µM, 90min) of 96.45 and a cm.mii.24hrs (0.01 µM, 24hrs) of 102.85. For the same compound, the cm.mito.24hrs (0.01 µM, 24hrs) was 101.32, the cm.mii.90min (0.10 µM, 90min) was 114.32 and the cm.mito.90min (0.10 µM, 90min) was 99.06. It also gave a cm.mii.24hrs (0.10 µM, 24hrs) of 75.71, a cm.mito.24hrs (0.10 µM, 24hrs) of 97.62 and a cm.mii.90min (1.00 µM, 90min) of 108.72. For the same compound, the cm.mito.90min (1.00 µM, 90min) was 99.64, the cm.mii.24hrs (1.00 µM, 24hrs) was 98.56 and the cm.mito.24hrs (1.00 µM, 24hrs) was 95.39. For the same compound, the cm.mii.90min (10.00 µM, 90min) was 109.00, the cm.mito.90min (10.00 µM, 90min) was 96.91 and the cm.mii.24hrs (10.00 µM, 24hrs) was 82.93. For the same compound, the cm.mito.24hrs (10.00 µM, 24hrs) was 97.40, the cm.mii.90min (100.00 µM, 90min) was 5.98 and the cm.mito.90min (100.00 µM, 90min) was 0.07. For the same compound, the cm.mii.24hrs (100.00 µM, 24hrs) was 87.76 and the cm.mito.24hrs (100.00 µM, 24hrs) was 0.79.
